# Assay results: article PMC12495443, “Developing inhibitors of the guanosine triphosphate hydrolysis accelerating activity of Regulator of G protein Signaling-14 [drawing 1]” (The Journal of Biological Chemistry, 2025)
# Target: T1, human RGS14 RGS-box (wild-type) (Homo sapiens, UniProt O43566)
# T1 construct: human RGS14 RGS-box (aa 46–195 of UniProt O43566); host or cells: E. coli
# T1 sequence (O43566 46-195): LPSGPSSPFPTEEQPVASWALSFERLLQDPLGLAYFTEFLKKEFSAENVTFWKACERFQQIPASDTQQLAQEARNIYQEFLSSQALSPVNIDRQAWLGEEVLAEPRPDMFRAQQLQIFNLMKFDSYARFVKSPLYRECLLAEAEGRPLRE
# Experiment: Transcreener GDP RGScreen fluorescence polarization assay of RGS14 RGS-box GAP activity on Gαi1(DM)
# Type: biochemical
# Settings: wild-type RGS14 RGS-box GAP activity, Gαi1(DM), Transcreener GDP RGScreen; read-out: RGS14 pIC50 (converted)
# Excerpt: We previously described work with BellBrook Labs creating the Transcreener GDP RGScreen fluorescence polarization assay of steady-state GTP hydrolysis, leveraging a double point-mutant in the Gα enzyme to make GTP hydrolysis, rather than GDP (product) release, the rate-limiting step for multiple rounds of GTP conversion ([57], [59]). […] Titrating inputs of the double point-mutant (“DM”) Gαi1 and RGS-box recombinant proteins (Fig. S2, B and C) established a robust, medium-throughput assay for evaluating potential RGS14 and RGS12 inhibitors, with “assay quality” Z′ scores ([60]) above 0.76 for each target (Fig. S2D).
# Reagents and protocols for the fluorescence anisotropy-based Transcreener GDP RGScreen assay using a rate-altered, double point-mutant, recombinant Gαi1 protein have been extensively described previously ([43], [44]); reactions were always performed so that total GTP converted over the time course was consistently less than 10% of reaction maximum input. Specific methods for its application in assessing RGS14 and RGS12 GAP activity are summarized as follows. Open-reading frames (ORFs) encoding wild-type versions of the human RGS14 RGS-box (aa 46–195 of UniProt O43566) and human RGS12 RGS-box (aa 695–843 of UniProt O14924) were each sub-cloned in-frame with an N-terminal hexahistidine (His6) expression tag in the plasmid pET30a, expressed in E. coli cultures, and then purified by nickel-nitriloacetate (Ni-NTA) and size-exclusion (Superdex 200) column chromatographies by GenScript using previously described methods ([35]). These recombinant His6-tag fusion proteins were stored at −80 °C in storage buffer (150 mM NaCl, 50 mM Tris-HCl pH 8.0, 10% glycerol) before thawing and use. Cysteine-less versions were similarly produced by ORF site-directed mutagenesis: for RGS14, codons for cysteine residues 47 and 130 (numbered as in PDB id 2JNU) were replaced with serine codons; for RGS12, codons for cysteines 4, 51, 78, and 134 (numbered in relation to PDB id 2EBZ) were replaced with serine codons. Use of Transcreener GDP-detection reagents to assess compound inhibition of Naegleria fowleri Gα7 protein GTPase activity ([83]) has previously been described ([84]).
row,SMILES,IC50 [µM]
1,COc1ccc(C(=O)C(Sc2nc3ccccc3n2C)c2ccc(OC)cc2)cc1 (stereo not drawn) [Z15478257],> 1000
2,CCOc1ccc(C(=O)C(C)Sc2nc3ccccc3n2C)cc1 (stereo not drawn) [Z15479255],> 1000
3,COc1ccc2nc(SCCC(=O)c3ccc(F)cc3)[nH]c2c1 [Z16077963],> 1000
4,COCCn1c(SC(C)C(=O)c2ccc(Br)cc2)nc2ccccc21 (stereo not drawn) [Z16216100],> 1000
5,COCCn1c(SC(C)C(=O)c2ccc(OC)cc2)nc2ccccc21 (stereo not drawn) [Z16216221],> 1000
6,CCn1c(SC(C)C(=O)c2ccc3c(c2)CCC3)nc2cc(S(=O)(=O)N3CCOCC3)ccc21 (stereo not drawn) [Z16669629],> 1000
7,CCn1c(SC(C)C(=O)c2ccccc2)nc2cc(S(=O)(=O)N3CCOCC3)ccc21 (stereo not drawn) [Z16669878],> 1000
8,Cc1ccc2[nH]c(SC(C)C(=O)c3ccc(OC(F)F)cc3)nc2c1 (stereo not drawn) [Z18443016],> 1000
9,CCc1ccc(C(=O)C(C)Sc2nc3cc(C)ccc3[nH]2)cc1 (stereo not drawn) [Z18443315],> 1000
10,Cc1ccc2[nH]c(SC(C)C(=O)c3ccc(F)cc3)nc2c1 (stereo not drawn) [Z18443583],> 1000
11,CCCCn1c(SC(C(=O)c2ccc(OC)cc2)c2ccc(OC)cc2)nc2cc(S(N)(=O)=O)ccc21 (stereo not drawn) [Z19162246],> 1000
12,COc1ccc(-n2c(SC(C)C(=O)c3cc(C)ccc3C)nc3ccccc32)cc1 (stereo not drawn) [Z19576483],> 1000
13,COc1ccc(-n2c(SC(C)C(=O)c3cc(C)c(C)cc3C)nc3ccccc32)cc1 (stereo not drawn) [Z19576531],> 1000
14,CCOc1ccc2[nH]c(SCCC(=O)c3ccc(F)cc3)nc2c1 [Z19828508],> 1000
15,CCn1c(SC(C)C(=O)c2ccc(NS(C)(=O)=O)cc2)nc2ccccc21 (stereo not drawn) [Z50932618],> 1000
16,CC(Sc1nc2ccccc2n1C)C(=O)c1ccc(NS(C)(=O)=O)cc1 (stereo not drawn) [Z50932699],> 1000
17,CCn1c(SC(C)C(=O)c2ccc3c(c2)CCC3)nc2cc(S(N)(=O)=O)ccc21 (stereo not drawn) [Z51418316],> 1000
18,CCn1c(SC(C)C(=O)c2ccc(NC(C)=O)cc2)nc2cc(S(N)(=O)=O)ccc21 (stereo not drawn) [Z51418527],> 1000
19,CCn1c(SC(C)C(=O)c2cccc(Cl)c2)nc2cc(S(N)(=O)=O)ccc21 (stereo not drawn) [Z51418566],> 1000
20,CCn1c(SC(C)C(=O)c2ccc(Cl)cc2)nc2cc(S(N)(=O)=O)ccc21 (stereo not drawn) [Z51418567],> 1000

row,SMILES,IC50 [µM]
1,CCn1c(SC(C)C(=O)c2cc(C)ccc2C)nc2cc(S(N)(=O)=O)ccc21 (stereo not drawn) [Z51418807],> 1000
2,CCc1ccc(C(=O)C(C)Sc2nc3cc(S(N)(=O)=O)ccc3n2CC)cc1 (stereo not drawn) [Z51418852],> 1000
3,CCn1c(SC(C)C(=O)c2ccc(Br)cc2)nc2cc(S(N)(=O)=O)ccc21 (stereo not drawn) [Z51418902],> 1000
4,CCn1c(SC(C)C(=O)c2ccc(OC)cc2)nc2cc(S(N)(=O)=O)ccc21 (stereo not drawn) [Z51419018],> 1000
5,CCn1c(SC(C)C(=O)c2ccc(F)cc2)nc2cc(S(N)(=O)=O)ccc21 (stereo not drawn) [Z51419107],> 1000
6,CCOc1ccc(C(=O)C(C)Sc2nc3cc(S(N)(=O)=O)ccc3n2CC)cc1 (stereo not drawn) [Z51419689],> 1000
7,CC(Sc1nc2ccccc2n1C(C)C)C(=O)c1ccc(C(C)C)cc1C(C)C (stereo not drawn) [Z54156331],> 1000
8,CCOc1ccc2nc(SCC(=O)c3ccc(CC)cc3)[nH]c2c1 [Z55030990],> 1000
9,COc1ccc2nc(SCC(O)c3ccccc3)[nH]c2c1 (stereo not drawn) [Z56784116],> 1000
10,COc1ccc2nc(SC(C)C(=O)N(C)C)[nH]c2c1 (stereo not drawn) [Z92077129],> 1000
11,COc1ccc2nc(SC(C)C(=O)c3[nH]c(C)c(C(C)=O)c3C)[nH]c2c1 (stereo not drawn) [Z98717471],> 1000
12,COc1ccc2nc(SCC(=O)c3ccc(O)cc3)[nH]c2c1 [Z112468740],> 1000
13,CC(=O)N1CCc2cc(C(=O)C(C)Sc3nc4cc(C)ccc4[nH]3)ccc21 (stereo not drawn) [Z165332254],> 1000
14,CCn1c(SC(C)C(=O)c2ccc3c(c2)CCN3C(C)=O)nc2ccccc21 (stereo not drawn) [Z165501154],> 1000
15,COCCn1c(SC(C)C(=O)c2ccc3c(c2)CCN3C(C)=O)nc2ccccc21 (stereo not drawn) [Z165550978],> 1000
16,COc1ccc2[nH]c(SCC(=O)c3ccc(O)c(O)c3)nc2c1 [Z223822242],> 1000
17,COc1ccc2[nH]c(SC(C(N)=O)c3ccc(F)cc3)nc2c1 (stereo not drawn) [Z234729962],> 1000
18,CCn1c(SC(C)C(=O)c2c(F)cc(F)cc2F)nc2ccccc21 (stereo not drawn) [Z1098345881],> 1000
19,Cc1ccc2[nH]c(SC(C)C(=O)c3c(F)cc(F)cc3F)nc2c1 (stereo not drawn) [Z1098347474],> 1000

# The remaining lines, values ahead:
row,IC50 [µM],SMILES
1,> 1000,COc1ccc2nc(SC(C)C(=O)c3ccc4c(c3)CCC4)[nH]c2c1 (stereo not drawn) [Z16076970]
2,> 1000,COc1ccc2nc(SC(C)C(=O)Nc3ccc(C)cc3)[nH]c2c1 (stereo not drawn) [Z16077036]
3,> 1000,COc1ccc2nc(SC(C)C(=O)c3ccc(NC(C)=O)cc3)[nH]c2c1 (stereo not drawn) [Z16077185]
4,> 1000,COc1ccc2nc(SC(C)C(=O)c3ccccc3)[nH]c2c1 (stereo not drawn) [Z16077228]
5,> 1000,COc1ccc2nc(SC(C)C(=O)c3cccc(Cl)c3)[nH]c2c1 (stereo not drawn) [Z16077229]
6,> 1000,COc1ccc2nc(SC(C)C(=O)c3ccc(OC(F)F)cc3)[nH]c2c1 (stereo not drawn) [Z16077231]
7,> 1000,COc1ccc2nc(SC(C)C(=O)c3cc(C)ccc3C)[nH]c2c1 (stereo not drawn) [Z16077483]
8,> 1000,COc1ccc2nc(SC(C)C(=O)c3ccc(C)c(C)c3)[nH]c2c1 (stereo not drawn) [Z16077488]
9,> 1000,CCc1ccc(C(=O)C(C)Sc2nc3ccc(OC)cc3[nH]2)cc1 (stereo not drawn) [Z16077530]
10,> 1000,COc1ccc2nc(SC(C)C(=O)c3cc(C)c(C)cc3C)[nH]c2c1 (stereo not drawn) [Z16077531]
11,> 1000,COc1ccc2nc(SC(C)C(=O)c3ccc(F)c(F)c3)[nH]c2c1 (stereo not drawn) [Z16077536]
12,> 1000,COc1ccc2nc(SC(C)C(=O)c3ccc(C(C)(C)C)cc3)[nH]c2c1 (stereo not drawn) [Z16077565]
13,> 1000,COc1ccc2nc(SC(C)C(=O)c3ccc(Br)cc3)[nH]c2c1 (stereo not drawn) [Z16077584]
14,> 1000,COc1ccc(C(=O)C(C)Sc2nc3ccc(OC)cc3[nH]2)c(OC)c1 (stereo not drawn) [Z16077640]
15,> 1000,COc1ccc(C(=O)C(C)Sc2nc3ccc(OC)cc3[nH]2)cc1 (stereo not drawn) [Z16077705]
16,> 1000,COc1ccc2nc(SC(C)C(=O)c3ccc(F)cc3)[nH]c2c1 (stereo not drawn) [Z16077798]
17,> 1000,COc1ccc2nc(SCC(=O)c3ccc(F)cc3)[nH]c2c1 [Z16077977]
18,> 1000,COc1ccc2nc(SC(C)C(=O)c3ccc(NC(=O)C(C)(C)C)cc3)[nH]c2c1 (stereo not drawn) [Z50965385]
19,> 1000,CCCC(=O)Nc1ccc(C(=O)C(C)Sc2nc3ccc(OC)cc3[nH]2)cc1 (stereo not drawn) [Z50965416]
20,> 1000,COc1ccc2nc(SC(C)C(=O)c3ccc(NC(=O)C(C)C)cc3)[nH]c2c1 (stereo not drawn) [Z65841956]
21,> 1000,COc1ccc2nc(SC(C)C(=O)Nc3ccc(F)cc3F)[nH]c2c1 (stereo not drawn) [Z112468618]
22,> 1000,COc1ccc2nc(SC(C)C(=O)Nc3cc(F)ccc3F)[nH]c2c1 (stereo not drawn) [Z112468620]
23,> 1000,COc1ccc2nc(SC(C)C(=O)c3ccc4c(c3)CCN4C(C)=O)[nH]c2c1 (stereo not drawn) [Z165591262]
24,> 1000,COc1ccc2nc(SC(C)C(=O)c3ccc(F)cc3F)[nH]c2c1 (stereo not drawn) [Z167736700]
25,> 1000,Cc1ccc2[nH]c(SC(C)C(=O)c3ccc(F)cc3F)nc2c1 (stereo not drawn) [Z167804418]
26,> 1000,CCC(Sc1nc2ccc(OC)cc2[nH]1)C(=O)c1ccccc1 (stereo not drawn) [Z447938100]
27,> 1000,COc1ccc2nc(SC(C)C(=O)c3ccc(OC)c(OC)c3)[nH]c2c1 (stereo not drawn) [Z940567722]
